From patent US20110039763A1, “TARGETED ANTIMICROBIAL MOIETIES” (C3 JIAN, INC., priority 2009, published 2011)
Entries after “also recorded” stand apart in the source; their conditions may differ.

Test system: microorganisms
Test: Targeting peptide binding to target microorganisms (Tables 3, 10, 12)
Settings: peptide binding in aqueous buffers that varied with peptide solubility; preferably 1x PBS

1T-56 (LALIGAGIWMIRKG; Peptide with targeting and/or antimicrobial activity)
Target(s) (microorganism bound by the targeting peptide): C. xerosis; also recorded: P. aeruginosa

1T-57 (RLEYRRLETQVEENPESGRRPMRG; Peptide with targeting and/or antimicrobial activity)
Target(s) (microorganism bound by the targeting peptide): P. aeruginosa

1T-58 (CDDLHALERAGKLDALLSA; Peptide with targeting and/or antimicrobial activity)
Target(s) (microorganism bound by the targeting peptide): P. aeruginosa

1T-59 (AVGNNLGKDNDSGHRGKKHRKHKHR; Peptide with targeting and/or antimicrobial activity)
Target(s) (microorganism bound by the targeting peptide): S. aureus; also recorded: S. epidermidis; also recorded: P. aeruginosa

1T-60 (YLTSLGLDAAEQAQGLLTILKG; Peptide with targeting and/or antimicrobial activity)
Target(s) (microorganism bound by the targeting peptide): S. aureus; also recorded: S. epidermidis; also recorded: C. jeikeium; also recorded: C. striatum; also recorded: P. aeruginosa

1T-61 (HATLLPAVREAISRQLLPALVPRG; Peptide with targeting and/or antimicrobial activity)
Target(s) (microorganism bound by the targeting peptide): P. aeruginosa

1T-62 (GCKGCAQRDPCAEPEPYFRLR; Peptide with targeting and/or antimicrobial activity)
Target(s) (microorganism bound by the targeting peptide): S. epidermidis; also recorded: P. aeruginosa

1T-63 (EPLILKELVRNLFLFCYARALR; Peptide with targeting and/or antimicrobial activity)
Target(s) (microorganism bound by the targeting peptide): S. aureus; also recorded: S. epidermidis; also recorded: C. jeikeium; also recorded: C. xerosis; also recorded: C. striatum; also recorded: P. aeruginosa

1T-64 (QTVHHIHMHVLGQRQMHWPPG; Peptide with targeting and/or antimicrobial activity)
Target(s) (microorganism bound by the targeting peptide): S. aureus; also recorded: S. epidermidis; also recorded: C. jeikeium; also recorded: C. xerosis; also recorded: C. striatum; also recorded: P. aeruginosa

1T-65 (HARAAVGVAELPRGAAVEVELIAAVRP; Peptide with targeting and/or antimicrobial activity)
Target(s) (microorganism bound by the targeting peptide): S. mutans; also recorded: S. aureus; also recorded: S. epidermidis; also recorded: C. jeikeium; also recorded: C. xerosis; also recorded: C. striatum; also recorded: P. aeruginosa

1T-66 (DTDCLSRAYAQRIDELDKQYAGIDKPL; Peptide with targeting and/or antimicrobial activity)
Target(s) (microorganism bound by the targeting peptide): S. mutans; also recorded: S. aureus; also recorded: S. epidermidis; also recorded: C. jeikeium; also recorded: C. xerosis; also recorded: C. striatum; also recorded: P. aeruginosa

1T-67 (GQRQRLTCGRVSGCSEGPSREAAR; Peptide with targeting and/or antimicrobial activity)
Target(s) (microorganism bound by the targeting peptide): S. aureus; also recorded: S. epidermidis; also recorded: C. jeikeium; also recorded: C. xerosis; also recorded: C. striatum; also recorded: P. aeruginosa

1T-68 (GGTKEIVYQRG; Peptide with targeting and/or antimicrobial activity)
Target(s) (microorganism bound by the targeting peptide): S. mutans; also recorded: S. aureus; also recorded: C. jeikeium; also recorded: C. xerosis; also recorded: C. striatum; also recorded: P. aeruginosa

1T-69 (ILSQEADRKKLF; Peptide with targeting and/or antimicrobial activity)
Target(s) (microorganism bound by the targeting peptide): S. mutans; also recorded: P. aeruginosa

1T-70 (NRQAQGERAHGEQQG; Peptide with targeting and/or antimicrobial activity)
Target(s) (microorganism bound by the targeting peptide): S. aureus; also recorded: C. jeikeium; also recorded: P. aeruginosa

1T-71 (KIDTNQWPPNKEG; Peptide with targeting and/or antimicrobial activity)
Target(s) (microorganism bound by the targeting peptide): P. aeruginosa

1T-72 (EPTDGVACKER; Peptide with targeting and/or antimicrobial activity)
Target(s) (microorganism bound by the targeting peptide): P. aeruginosa

1T-73 (GWWEELLHETILSKFKITKALELPIQL; Peptide with targeting and/or antimicrobial activity)
Target(s) (microorganism bound by the targeting peptide): S. pneumoniae

1T-74 (DIDWGRKISCAAGVAYGAIDGCATTV; Peptide with targeting and/or antimicrobial activity)
Target(s) (microorganism bound by the targeting peptide): S. pneumoniae

1T-75 (GVARGLQLGIKTRTQWGAATGAA; Peptide with targeting and/or antimicrobial activity)
Target(s) (microorganism bound by the targeting peptide): S. pneumoniae

1T-76 (EMRLSKFFRDFILWRKK; Peptide with targeting and/or antimicrobial activity)
Target(s) (microorganism bound by the targeting peptide): S. pneumoniae

1T-77 (EMRISRIILDFLFLRKK; Peptide with targeting and/or antimicrobial activity)
Target(s) (microorganism bound by the targeting peptide): S. pneumoniae

1T-78 (FFKTIFVLILGALGVAAGLYIEKNYIDK; Peptide with targeting and/or antimicrobial activity)
Target(s) (microorganism bound by the targeting peptide): S. pneumoniae

1T-79 (FGTPWSITNFWKKNFNDRPDFDSDRRRY; Peptide with targeting and/or antimicrobial activity)
Target(s) (microorganism bound by the targeting peptide): S. pneumoniae

1T-80 (GGNLGPGFGVIIP; Peptide with targeting and/or antimicrobial activity)
Target(s) (microorganism bound by the targeting peptide): S. pneumoniae

1T-81 (AIATGLDIVDGKFDGYLWA; Peptide with targeting and/or antimicrobial activity)
Target(s) (microorganism bound by the targeting peptide): S. pneumoniae

1T-82 (FGVGVGIALFMAGYAIGKDLRKKFGKSC; Peptide with targeting and/or antimicrobial activity)
Target(s) (microorganism bound by the targeting peptide): S. pneumoniae

1T-83 (QKPRKNETFIGYIQRYDIDGNGYQSLPCPQN; Peptide with targeting and/or antimicrobial activity)
Target(s) (microorganism bound by the targeting peptide): S. pneumoniae

1T-84 (FRKKRYGLSILLWLNAFTNLVNSIHAFYMTLF; Peptide with targeting and/or antimicrobial activity)
Target(s) (microorganism bound by the targeting peptide): S. pneumoniae

1T-86 (HRKNPVLGVGRRHRAHNVA; Peptide with targeting and/or antimicrobial activity)
Target(s) (microorganism bound by the targeting peptide): S. mitis; also recorded: S. oralis; also recorded: S. salivarious

1T-87 (EAVGQDLVDAHHP; Peptide with targeting and/or antimicrobial activity)
Target(s) (microorganism bound by the targeting peptide): S. mitis; also recorded: S. mutans; also recorded: S. oralis

1T-89 (HEDDKRRGMSVEVLGFEVVQHEE; Peptide with targeting and/or antimicrobial activity)
Target(s) (microorganism bound by the targeting peptide): S. mitis; also recorded: S. mutans

1T-90 (RNVIGQVL; Peptide with targeting and/or antimicrobial activity)
Target(s) (microorganism bound by the targeting peptide): S. gordonii; also recorded: S. mitis; also recorded: S. mutans; also recorded: S. oralis; also recorded: S. sanguinis

1T-91 (TSVRPGAAGAAVPAGAAGAAGAGWRWP; Peptide with targeting and/or antimicrobial activity)
Target(s) (microorganism bound by the targeting peptide): S. mitis; also recorded: S. mutans; also recorded: S. oralis; also recorded: S. sanguinis

1T-92 (GQDEGQRRAGVGEGQGVDG; Peptide with targeting and/or antimicrobial activity)
Target(s) (microorganism bound by the targeting peptide): S. mitis; also recorded: S. mutans

1T-93 (AMRSVNQA; Peptide with targeting and/or antimicrobial activity)
Target(s) (microorganism bound by the targeting peptide): S. epidermidis; also recorded: S. gordonii; also recorded: S. mitis; also recorded: S. mutans; also recorded: S. oralis; also recorded: S. sanguinis

1T-94 (DQVAHSGDMLVQARRRDS; Peptide with targeting and/or antimicrobial activity)
Target(s) (microorganism bound by the targeting peptide): S. mitis; also recorded: S. mutans; also recorded: S. oralis

1T-95 (GHLLRVGGRVGGVGGVAGACAQPFGGQ; Peptide with targeting and/or antimicrobial activity)
Target(s) (microorganism bound by the targeting peptide): S. gordonii; also recorded: S. mitis; also recorded: S. mutans; also recorded: S. oralis; also recorded: S. sanguinis

1T-96 (VAGACAQPFGGQ; Peptide with targeting and/or antimicrobial activity)
Target(s) (microorganism bound by the targeting peptide): S. gordonii; also recorded: S. mitis; also recorded: S. mutans; also recorded: S. oralis; also recorded: S. sanguinis

1T-99 (MKAWLGQ; Peptide with targeting and/or antimicrobial activity)
Target(s) (microorganism bound by the targeting peptide): S. gordonii; also recorded: S. mitis; also recorded: S. mutans; also recorded: S. oralis; also recorded: S. sanguinis

1T-100 (LDPLEPRIAPPGDRSHQGAPACHRDPLRGRSARDAER; Peptide with targeting and/or antimicrobial activity)
Target(s) (microorganism bound by the targeting peptide): S. gordonii; also recorded: S. mitis; also recorded: S. mutans

1T-101 (RLRVGRATDLPLTSFAVGVVRNLPDAPAH; Peptide with targeting and/or antimicrobial activity)
Target(s) (microorganism bound by the targeting peptide): A. naeslundii; also recorded: P. gingivalis; also recorded: S. epidermidis; also recorded: S. gordonii; also recorded: S. mitis; also recorded: S. mutans; also recorded: S. oralis; also recorded: S. sanguinis

1T-104 (RAVAAHLQGRHHGHQVRRQRHGQR; Peptide with targeting and/or antimicrobial activity)
Target(s) (microorganism bound by the targeting peptide): S. mitis
